Experimental data published in paper PMC10788925 (Journal of Medicinal Chemistry, 2023).
Several values for one entry are separate records, joined by “and”; a condition that tells them apart may be missing. Equal entries are not always repeated. Where two headings read alike, the source gives them in different places.

Assays:
[1] = system: HEV-3 replicon p6-Gluc; assay: microbe, parasite or virus in culture; format: cell-based, Hepatitis E virus
[2] = in vitro; settings: human

Molecule | EC50 ([1]; Hepatitis E virus, HepG2, 24 h) [nM] | EC90 ([1]; Hepatitis E virus, HepG2, 24 h) [nM] | EC50 ([1]; Hepatitis E virus, HepG2, 48 h) [nM] | EC90 ([1]; Hepatitis E virus, HepG2, 48 h) [nM] | CC50 at 24 h [2] [nM] | CC50 at 48 h [2] [nM] | EC50 ([1]; read-out: EC50) | EC90 ([1]; read-out: EC90) | EC90 ([1]; Hepatitis E virus, HepG2, 24 h, read-out: HEV, EC90 (24 h, nM)) [nM] | EC90 ([1]; Hepatitis E virus, HepG2, 48 h, read-out: HEV, EC90 (48 h, nM)2) [nM] | CC50 [2] [nM]
CONC(=O)[C@H]1[C@@H](O)[C@@]2(O)c3c(Cl)cc(Cl)cc3O[C@@]2(c2ccc(OC)cc2)[C@@H]1c1ccccc1 (racemic) [14da, (±)-(1R,2R,3S,3aR,8bS)-6,8-Dichloro-1,8b-dihydroxy-N-methoxy-3a-(4-methoxyphenyl)-3-phenyl-2,3,3a,8b-tetrahydro-1H-cyclopenta[b]benzofuran-2-carboxamide] | 8.6 | 172 | 9.8 | 134 | 511 | 31.8 |  |  |  |  | 
(±)-(1R,2R,3S,3aR,8bS)-3a-(4-chlorophenyl)-1,8b-dihydroxy-N,6,8-trimethoxy-3-phenyl-2,3,3a,8b-tetrahydro-1H-cyclopenta[b]benzofuran-2-carboxamide [14ab] |  |  |  |  |  |  | 2.8 nM and 2.3 nM | 18.2 nM and 23.8 nM |  |  | 
COC(=O)[C@H]1[C@@H](O)[C@@]2(O)c3c(Br)cc(Br)cc3O[C@@]2(c2ccc(OC)cc2)[C@@H]1c1ccccc1 (racemic) [9e, (±)-Methyl (1R,2R,3S,3aR,8bS)-6,8-dibromo-1,8b-dihydroxy-3a-(4-methoxyphenyl)-3-phenyl-2,3,3a,8b-tetrahydro-1H-cyclopenta[b]benzofuran-2-carboxylate] | 36.1 | 362 | 33.2 | 282 | 766 | 90.2 |  |  |  |  | 
CONC(=O)[C@H]1[C@@H](O)[C@@]2(O)c3c(OC)cc(Br)cc3O[C@@]2(c2ccc(OC)cc2)[C@@H]1c1ccccc1 (racemic) [14m, (±)-(1R,2R,3S,3aR,8bS)-6-Bromo-1,8b-dihydroxy-N,8-dimethoxy-3a-(4-methoxyphenyl)-3-phenyl-2,3,3a,8b-tetrahydro-1H-cyclopenta[b]benzofuran-2-carboxamide] | 1 | 328 | 0.2 | 1.6 | 748 | 1 |  |  |  |  | 
COC(=O)[C@H]1[C@@H](O)[C@@]2(O)c3c(OC)cc(OC)cc3O[C@@]2(c2ccc(F)cc2)[C@@H]1c1ccccc1 (racemic) [11ba, (±)-Methyl (1R,2R,3S,3aR,8bS)-3a-(4-fluorophenyl)-1,8b-dihydroxy-6,8-dimethoxy-3-phenyl-2,3,3a,8b-tetrahydro-1H-cyclopenta[b]benzofuran-2-carboxylate] | 338 | > 1000 | 334 | > 1000 |  | 421 |  |  | > 1000 | > 1000 | > 1000
(±)-(1R,2R,3S,3aR,8bS)-8-Bromo-6-chloro-1,8b-dihydroxy-N-methoxy-3a-(4-methoxyphenyl)-3-phenyl-2,3,3a,8b-tetrahydro-1H-cyclopenta[b]benzofuran-2-carboxamide [14g] |  |  |  |  |  |  | 4.1 nM and 5.5 nM |  |  |  | 
COC(=O)[C@H]1[C@@H](O)[C@@]2(O)c3c(F)cc(OC)cc3O[C@@]2(c2ccc(OC)cc2)[C@@H]1c1ccccc1 (racemic) [9h, (±)-Methyl (1R,2R,3S,3aR,8bS)-8-fluoro-1,8b-dihydroxy-6-methoxy-3a-(4-methoxyphenyl)-3-phenyl-2,3,3a,8b-tetrahydro-1H-cyclopenta[b]benzofuran-2-carboxylate] | 61 | > 1000 | 64.3 | 634 |  | 163 |  |  |  |  | > 1000
COC(=O)[C@H]1[C@@H](O)[C@@]2(O)c3c(Cl)cc(Br)cc3O[C@@]2(c2ccc(OC)cc2)[C@@H]1c1ccccc1 (racemic) [9f, (±)-Methyl (1R,2R,3S,3aR,8bS)-6-bromo-8-chloro-1,8b-dihydroxy-3a-(4-methoxyphenyl)-3-phenyl-2,3,3a,8b-tetrahydro-1H-cyclopenta[b]benzofuran-2-carboxylate] | 9.9 | 583 | 14.9 | 454 | 663 | 61 |  |  |  |  | 
(±)-(1R,2R,3S,3aR,8bS)-3a-(4-fluorophenyl)-1,8b-dihydroxy-N,6,8-trimethoxy-3-phenyl-2,3,3a,8b-tetrahydro-1H-cyclopenta[b]benzofuran-2-carboxamide [14bab] |  |  |  |  |  |  | 53.7 nM and 52.9 nM | 338 nM and 670 nM |  |  | 
COc1ccc([C@@]23Oc4cc(OC)cc(OC)c4[C@]2(O)[C@H](O)[C@H](C(=O)N(C)C)[C@H]3c2ccccc2)cc1 (racemic) [(±)-rocaglamide (rac-1b), (±)-(1R,2R,3S,3aR,8bS)-1,8b-Dihydroxy-6,8-dimethoxy-3a-(4-methoxyphenyl)-N,N-dimethyl-3-phenyl-2,3,3a,8b-tetrahydro-1H-cyclopenta[b]benzofuran-2-carboxamide, reference compound] | 27.8 | 213 | 21 | 201 | 550 | 44.5 |  |  |  |  | 
COC(=O)[C@H]1[C@@H](O)[C@@]2(O)c3c(OC)cc(OC)cc3O[C@@]2(c2ccc(Br)cc2)[C@@H]1c1ccccc1 (racemic) [11bb, (±)-Methyl (1R,2R,3S,3aR,8bS)-3a-(4-bromophenyl)-1,8b-dihydroxy-6,8-dimethoxy-3-phenyl-2,3,3a,8b-tetrahydro-1H-cyclopenta[b]benzofuran-2-carboxylate] | 7.3 | 158 | 9.4 | 91.3 | 420 | 27.1 |  |  |  |  | 
COC(=O)[C@H]1[C@@H](O)[C@@]2(O)c3c(OC)cc(OC)cc3O[C@@]2(c2ccc(Cl)cc2)[C@@H]1c1ccccc1 (racemic) [9a, (±)-Methyl (1R,2R,3S,3aR,8bS)-3a-(4-chlorophenyl)-1,8b-dihydroxy-6,8-dimethoxy-3-phenyl-2,3,3a,8b-tetrahydro-1H-cyclopenta[b]benzofuran-2-carboxylate] | 19.4 | 140 | 16.8 | 105 | 513 | 38.8 |  |  |  |  | 
COC(=O)[C@H]1[C@@H](O)[C@@]2(O)c3c(Cl)cc(Cl)cc3O[C@@]2(c2ccc(Br)cc2)[C@@H]1c1ccccc1 (racemic) [9db, (±)-Methyl (1R,2R,3S,3aR,8bS)-3a-(4-bromophenyl)-6,8-dichloro-1,8b-dihydroxy-3-phenyl-2,3,3a,8b-tetrahydro-1H-cyclopenta[b]benzofuran-2-carboxylate] | 29.6 | 128 | 14.7 | 124 | 389 | 48 |  |  |  |  | 
COC(=O)[C@H]1[C@@H](O)[C@@]2(O)c3c(Cl)cc(OC)cc3O[C@@]2(c2ccc(OC)cc2)[C@@H]1c1ccccc1 (racemic) [9j, (±)-Methyl (1R,2R,3S,3aR,8bS)-8-chloro-1,8b-dihydroxy-6-methoxy-3a-(4-methoxyphenyl)-3-phenyl-2,3,3a,8b-tetrahydro-1H-cyclopenta[b]benzofuran-2-carboxylate] | 92.6 | 577 | 75.7 | 394 | 832 | 148 |  |  |  |  | 
COCOc1cc(F)c2c(c1)O[C@@]1(c3ccc(Br)cc3)[C@H](c3ccccc3)[C@@H](C(=O)OC)[C@@H](O)[C@@]21O (racemic) [9nb, (±)-Methyl (1R,2R,3S,3aR,8bS)-3a-(4-bromophenyl)-8-fluoro-1,8b-dihydroxy-6-(methoxymethoxy)-3-phenyl-2,3,3a,8b-tetrahydro-1H-cyclopenta[b]benzofuran-2-carboxylate] | 86.9 | 345 | 63.2 | 298 | 727 | 113 |  |  |  |  | 
COC(=O)[C@H]1[C@@H](O)[C@@]2(O)c3c(Br)cc(Cl)cc3O[C@@]2(c2ccc(OC)cc2)[C@@H]1c1ccccc1 (racemic) [9g, (±)-Methyl (1R,2R,3S,3aR,8bS)-8-bromo-6-chloro-1,8b-dihydroxy-3a-(4-methoxyphenyl)-3-phenyl-2,3,3a,8b-tetrahydro-1H-cyclopenta[b]benzofuran-2-carboxylate] | 52.1 | 482 | 37.9 | 365 | 812 | 101 |  |  |  |  | 
COC(=O)[C@H]1[C@@H](O)[C@@]2(O)c3c(OC)cc(OC)cc3O[C@@]2(c2ccc(OC)cc2)[C@@H]1c1ccccc1 (racemic) [(±)-methyl rocaglate (11bc), (±)-Methyl (1R,2R,3S,3aR,8bS)-1,8b-dihydroxy-6,8-dimethoxy-3a-(4-methoxyphenyl)-3-phenyl-2,3,3a,8b-tetrahydro-1H-cyclopenta[b]benzofuran-2-carboxylate, reference compound] | 28.4 | 631 | 29.9 | 188 | 690 | 65.3 |  |  |  |  | 
COc1cc(OC)c2c(c1)O[C@@]1(c3ccc(F)cc3)[C@H](c3ccccc3)[C@@H](C(=O)N(C)C)[C@@H](O)[C@@]21O (racemic) [14baa, (±)-(1R,2R,3S,3aR,8bS)-3a-(4-fluorophenyl)-1,8b-dihydroxy-6,8-dimethoxy-N,N-dimethyl-3-phenyl-2,3,3a,8b-tetrahydro-1H-cyclopenta[b]benzofuran-2-carboxamide] | 229 | > 1000 | 208 | 829 | 966 | 297 |  |  |  |  | 
COC(=O)[C@H]1[C@@H](O)[C@@]2(O)c3c(OC)cc(O[C@@H]4O[C@@H]([C@H](O)CO)CO[C@H]4OC)cc3O[C@@]2(c2ccc(OC)cc2)[C@@H]1c1ccccc1 [(−)-silvestrol (2a), silvestrol, reference compound] | 4.2 | 40.5 | 2.2 | 28.1 | 180 | 13.4 |  |  |  |  | 
(±)-(1R,2R,3S,3aR,8bS)-1,8b-Dihydroxy-N,6,8-trimethoxy-3a-(4-methoxyphenyl)-3-phenyl-2,3,3a,8b-tetrahydro-1H-cyclopenta[b]benzofuran-2-carboxamide [(±)-CR-31-B (rac-1c), reference compound] |  |  |  |  |  |  | 6.1 nM and 3.7 nM | 27.3 nM and 29 nM |  |  | 
